# Assay results from ChEMBL document CHEMBL1124319, “Synthesis of an analogue of tabtoxinine as a potential inhibitor of D-alanine:D-alanine ligase (ADP forming)” (J Med Chem, 1989).
# Activity calls are given as the source filed them. The calls are words filed in the database; no cut-off is given here.
# Assays:
# [1] = Compound was tested for its inhibitory activity against DAla-DAla Ligase; design: species or system Enterococcus faecalis
# [2] = Compound was tested for its inhibitory activity against DAla-DAla Ligase at 1 mM; No activity; design: species or system Enterococcus faecalis
# Escherichia coli = assay: Antibacterial activity against Escherichia coli; Inactive; format: functional, organism-based
# Staphylococcus aureus = assay: Antibacterial activity against Staphylococcus aureus; Inactive; format: functional, organism-based
IC50 [2],Structure (SMILES),IC50 [1],Activity (Escherichia coli),Activity (Staphylococcus aureus)
,N[C@@H]1CONC1=O [CYCLOSERINE],250 µM,,
Not Active,C[C@@H](N)[C@]1(O)CNC1=O,,inactive,inactive
,CC(N)P(=O)(O)O (stereo not drawn),930 µM,,
Not Active,C[C@@H](N)[C@@]1(O)CNC1=O,,inactive,inactive
